The source of these data is US8563730B2, “Pyrazole and fused pyrazole glucokinase activators” (Takeda San Diego, Inc., priority 2008, dated 2013).

In this assay the target is T1, GK (glucokinase, residues 12-465) (Homo sapiens, UniProt P35557).
T1 construct: I.D. No. 1 corresponds to residues 12-465 of glucokinase; made in house; host or cells: DH10b-T1r E. coli
T1 sequence (P35557 with tags, fused parts or gaps isoform P35557-2): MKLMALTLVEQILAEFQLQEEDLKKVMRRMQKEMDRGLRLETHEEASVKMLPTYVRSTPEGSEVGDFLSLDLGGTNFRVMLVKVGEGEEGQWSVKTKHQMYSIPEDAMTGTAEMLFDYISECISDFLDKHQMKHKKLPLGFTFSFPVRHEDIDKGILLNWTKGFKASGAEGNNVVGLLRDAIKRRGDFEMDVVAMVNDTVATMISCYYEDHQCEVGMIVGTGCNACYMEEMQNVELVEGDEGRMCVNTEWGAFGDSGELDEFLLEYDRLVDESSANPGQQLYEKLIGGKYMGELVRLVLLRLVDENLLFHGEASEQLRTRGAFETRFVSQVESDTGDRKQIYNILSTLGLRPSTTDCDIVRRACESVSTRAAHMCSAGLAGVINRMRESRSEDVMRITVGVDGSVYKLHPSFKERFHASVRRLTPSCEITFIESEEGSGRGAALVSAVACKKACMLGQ
Put plainly: enzymatic glucokinase activity assay (ATP consumption, KinaseGlo luminescence). The assay is classed as biochemical. As to conditions: 5 μM ATP, 5 mM Glucose, reported as bins; for EC50: Kact = concentration that displays 50% of the maximal increase in GK activity, 60 min, room temperature, read-out: pKact. The source says: The activity of compounds as glucokinase activators may be assayed in vitro, in vivo or in a cell line. Provided below is an enzymatic glucokinase activity assay.
Purified glucokinase may be obtained as follows. […] SEQ.
The expression of recombinant glucokinase protein may be carried out by transformation and growth of DH10b-T1r E. coli cells incorporating the (pFLAG-CTC) plasmid in LB media. Protein expression can be induced in this system by the addition of IPTG to the culture medium.
Recombinant protein may be isolated from cellular extracts by passage over Sepharose Q Fast Flow resin (Pharmacia). This partially purified GK extract may then be further purified by a second passage over Poros HQ10 (Applied Biosystems). The purity of GK may be determined on denaturing SDS-PAGE gel. Purified GK may then be concentrated to a final concentration of 20.0 mg/ml. After flash freezing in liquid nitrogen, the proteins can be stored at −78° C. in a buffer containing 25 mM TRIS-HCl pH 7.6, 50 mM NaCl, and 0.5 mM TCEP.
The activation properties of compounds for GK may be determined using a black 384-well-plate format under the following reaction conditions: 25 mM Hepes pH 7.2, 25 mM NaCl, 10 mM MgCl2, 0.01% Brij35, 1 mM DTT, 5 μM ATP, 5 mM Glucose 2% DMSO. The amount of ATP consumed may be determined quantitatively by addition of equal volume of luciferase reagent (luciferase+beetle luciferin—KinaseGlo Luminescent Kinase Assay kit from Promega). The luminescence intensity may be measured by using the Analyst HT from LJL Biosystems.
The reaction mixture may then be incubated at room temperature for 60 min, and quenched and developed by addition of 10 μL of luciferase reagent. Luminescence intensities of the resulting reaction mixtures may be measured after a 10 min incubation at room temperature. The luminescence intensity may be measured by using the Analyst HT from LJL Biosystems.
pKact and % ACTmax values may be calculated by non-linear curve fitting of the compound concentrations and luminescence intensities to a standard inhibition/activation equation.

[1] abbreviates: calculated maximal gain in GK enzyme activity at a saturating concentration of the compound, read-out: % ACTmax.
[2] abbreviates: read-out: % ACTmax, calculated maximal gain in GK enzyme activity at a saturating concentration of the compound.

Read-outs that look alike come from different tables or passages of the source.

Turning to `O=C1CC[C@@H](C[C@@H](C(=O)Nc2ncc(F)s2)n2cc(S(=O)(=O)C3CC3)cn2)C1` [Compound 55, (S)-2-(4-(cyclopropylsulfonyl)-1H-pyrazol-1-yl)-N-(5-fluorothiazol-2-yl)-3-((S)-3-oxocyclopentyl)propanamide], the EC50 was in the range of 3.98 to 12.6 µM. Further, under setting [1], the Emax is not above 90%.

As to `COc1ccc2c(cnn2[C@H](CC2CCOCC2)C(=O)Nc2ccn(C)n2)c1S(=O)(=O)C1CC1` [Compound 110, (R)-2-(4-(cyclopropylsulfonyl)-5-methoxy-1H-indazol-1-yl)-N-(1-methyl-1H-pyrazol-3-yl)-3-(tetrahydro-2H-pyran-4-yl)propanamide], the EC50 is not below 15.8 µM. Besides, the Emax under setting [1] is 106 to 110%.

With `N#Cc1cc(S(=O)(=O)C2CC2)c2cnn(C(CC3CCOCC3)C(=O)Nc3ncc(F)s3)c2c1` (stereo not shown) [Compound 120, 2-(6-cyano-4-(cyclopropylsulfonyl)-1H-indazol-1-yl)-N-(5-fluorothiazol-2-yl)-3-(tetrahydro-2H-pyran-4-yl)propanamide], the EC50 was not above 0.316 µM. The Emax under setting [1] was 90 to 100%.

As to `O=C(Nc1ncc(F)s1)C(CC1CCOCC1)n1cc2c(S(=O)(=O)C3CC3)cncc2n1` (stereo not shown) [Compound 140, 2-(4-(cyclopropylsulfonyl)-2H-pyrazol[3,4-c]pyridin-2-yl)-N-(5-fluorothiazol-2-yl)-3-(tetrahydro-2H-pyran-4-yl)propanamide], the EC50 is not below 15.8 µM. Further, the Emax under setting [1] is not above 90%.

As for `Cn1ccc(NC(=O)[C@H](CC2CCOCC2)n2ncc3c(S(=O)(=O)C4CC4)c(F)ccc32)n1` [Compound 165, (S)-2-(4-(cyclopropylsulfonyl)-5-fluoro-1H-indazol-1-yl)-N-(1-methyl-1H-pyrazol-3-yl)-3-(tetrahydro-2H-pyran-4-yl)propanamide], the EC50 is not above 0.316 µM. Also, the Emax under setting [1] is 90 to 100%.

In the case of `O=C(Nc1ncc(F)s1)[C@@H](CC1CCOCC1)n1ncc2c(S(=O)(=O)C3CC3)cccc21` [Compound 68, (R)-2-(4-(cyclopropylsulfonyl)-1H-indazol-1-yl)-N-(5-fluorothiazol-2-yl)-3-(tetrahydro-2H-pyran-4-yl)propanamide], the EC50 fell in the range of 3.98 to 12.6 µM. For the same compound, under setting [1], the Emax was 101 to 105%.

For `COc1cc(S(=O)(=O)C2CC2)c2cn(C(CC3CCOCC3)C(=O)Nc3ncc(F)s3)nc2c1` (stereo not shown) [Compound 73, 2-(4-(cyclopropylsulfonyl)-6-methoxy-2H-indazol-2-yl)-N-(5-fluorothiazol-2-yl)-3-(tetrahydro-2H-pyran-4-yl)propanamide], the EC50 is not below 15.8 µM. Further, under setting [1], the Emax was 90 to 100%.

Regarding `COc1cc(S(=O)(=O)C2CC2)c2cnn(C(CC3CCOCC3)C(=O)Nc3ccn(C)n3)c2c1` (stereo not shown) [Compound 83, 2-(4-(cyclopropylsulfonyl)-6-methoxy-1H-indazol-1-yl)-N-(1-methyl-1H-pyrazol-3-yl)-3-(tetrahydro-2H-pyran-4-yl)propanamide], the EC50 was 3.98 to 12.6 µM. The Emax under setting [1] is not above 90%.

On to `O=C(Nc1ncc(F)s1)[C@@H](CC1CCOCC1)n1ncc2c(S(=O)(=O)C3CC3)cncc21` [Compound 85, (R)-2-(4-(cyclopropylsulfonyl)-1H-pyrazolo[3,4-c]pyridin-1-yl)-N-(5-fluorothiazol-2-yl)-3-(tetrahydro-2H-pyran-4-yl)propanamide], for which the EC50 lay within 1.58 to 3.16 µM. The Emax under setting [2] is 90 to 100%.

As to `Nc1cc(S(=O)(=O)C2CC2)c2cnn([C@H](CC3CCOCC3)C(=O)Nc3cnccn3)c2n1` [Compound 163, (R)-2-(6-amino-4-(cyclopropylsulfonyl)-1H-pyrazolo[3,4-b]pyridin-1-yl)-N-(pyrazin-2-yl)-3-(tetrahydro-2H-pyran-4-yl)propanamide], the EC50 lay within 1.58 to 3.16 µM. Also, the Emax under setting [1] is not above 90%.

In the case of `COc1cc(S(=O)(=O)C2CC2)c2cnn(C(CC3CCOCC3)C(=O)Nc3ncc(F)s3)c2c1` (stereo not shown) [Compound 72, 2-(4-(cyclopropylsulfonyl)-6-methoxy-1H-indazol-1-yl)-N-(5-fluorothiazol-2-yl)-3-(tetrahydro-2H-pyran-4-yl)propanamide], the EC50 is not above 0.316 µM. Moreover, the Emax under setting [1] was not above 90%.

On to `Cc1cc(S(=O)(=O)C2CC2)c2cnn(C(CC3CCOCC3)C(=O)Nc3ncc(F)s3)c2c1` (stereo not shown) [Compound 122, 2-(4-(cyclopropylsulfonyl)-6-methyl-1H-indazol-1-yl)-N-(5-fluorothiazol-2-yl)-3-(tetrahydro-2H-pyran-4-yl)propanamide], for which the EC50 lay within 3.98 to 12.6 µM. Besides, the Emax under setting [1] is not below 111%.

As for `O=C(Nc1ncc(F)s1)[C@H](CC1CCOCC1)n1ncc2c(S(=O)(=O)C3CC3)cc(O)cc21` [Compound 76, (S)-2-(4-(cyclopropylsulfonyl)-6-hydroxy-1H-indazol-1-yl)-N-(5-fluorothiazol-2-yl)-3-(tetrahydro-2H-pyran-4-yl)propanamide], the EC50 is not above 0.316 µM. For the same compound, the Emax under setting [1] was 106 to 110%.

Take `CS(=O)(=O)c1cccc2c1cnn2C(CC1CCOCC1)C(=O)Nc1ncc(F)s1` (stereo not shown) [Compound 41, N-(5-fluorothiazol-2-yl)-2-(4-(methylsulfonyl)-1H-indazole-1-yl)-3-(tetrahydro-2H-pyran-4-yl)propanamide]: the EC50 was 1.58 to 3.16 µM. Under setting [1], the Emax was not above 90%.

In the case of `O=C(Nc1ncc(F)s1)C(CC1CCOCC1)n1cc(S(=O)(=O)c2ccc(Cl)cc2)cn1` (stereo not shown) [Compound 29, 2-(4-(4-chlorophenylsulfonyl)-1H-pyrazol-1-yl)-N-(5-fluorothiazol-2-yl)-3-(tetrahydro-2H-pyran-4-yl)propanamide], the EC50 is 0.398 to 1.26 µM. For the same compound, the Emax under setting [1] is not below 111%.

`COc1ccc2c(cnn2[C@@H](CC2CCOCC2)C(=O)Nc2cnccn2)c1S(=O)(=O)C1CC1` [Compound 94, (S)-2-(4-(cyclopropylsulfonyl)-5-methoxy-1H-indazol-1-yl)-N-(pyrazin-2-yl)-3-(tetrahydro-2H-pyran-4-yl)propanamide]: the EC50 was not above 0.316 µM. Also, the Emax under setting [1] is 90 to 100%.

For `COc1ccc2nc(NC(=O)C(CC3CCOCC3)n3ccc(S(=O)(=O)C4CC4)n3)sc2n1` (stereo not shown) [Compound 1, 2-(3-(cyclopropylsulfonyl)-1H-pyrazol-1-yl)-N-(5-methoxythiazolo[5,4-b]pyridin-2-yl)-3-(tetrahydro-2H-pyran-4-yl)propanamide], the EC50 was not below 15.8 µM. Under setting [2], the Emax is not above 90%.

Take `O=C(Nc1cnccn1)C(CC1CCOCC1)n1cc2c(S(=O)(=O)C3CC3)cncc2n1` (stereo not shown) [Compound 169, 2-(4-(cyclopropylsulfonyl)-2H-pyrazolo[3,4-c]pyridin-2-yl)-N-(pyrazin-2-yl)-3-(tetrahydro-2H-pyran-4-yl)propanamide]: the EC50 is not below 15.8 µM. The Emax under setting [1] was not above 90%.

With `O=C(Nc1ncc(F)s1)C(CC1CCOCC1)n1cc2c(S(=O)(=O)C3CC3)c(F)ccc2n1` (stereo not shown) [Compound 148, 2-(4-(cyclopropylsulfonyl)-5-fluoro-2H-indazol-2-yl)-N-(5-fluorothiazol-2-yl)-3-(tetrahydro-2H-pyran-4-yl)propanamide], the EC50 lay in the range of 3.98 to 12.6 µM. The Emax under setting [1] was not above 90%.

As for `COc1ccc2nc(NC(=O)[C@@H](CC3CCOCC3)n3cc(S(=O)(=O)C4CC4)cn3)sc2n1` [Compound 25, (R)-2-(4-(cyclopropylsulfonyl)-1H-pyrazol-1-yl)-N-(5-methoxythiazolo[5,4-b]pyridin-2-yl)-3-(tetrahydro-2H-pyran-4-yl)propanamide], the EC50 is not below 15.8 µM. The Emax under setting [1] is not above 90%.
